Measured values from ChEMBL document CHEMBL1201862, “PubChem BioAssay data set” (2004).
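Five compound concentrations were applied to cells in 96-well plates for 48 hours; endpoints were derived by simple linear interpolation of the resulting dose-response curve. GI50 is the concentration that inhibits growth by half.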 Calls of active or inactive are those of the source. No stated cut-off is given here; in the data, active = GI50 up to about 1.1 µM and inactive = higher.

What was measured:
Test in all cases: NCI tumour cell line growth inhibition, 48 h
HL-60 = tested on: HL-60
SF-268 = tested on: SF-268
SR = tested on: SR
UACC-257 = tested on: UACC-257
Malme-3M = tested on: Malme-3M
NCI-H522 = tested on: NCI-H522
SK-MEL-28 = tested on: SK-MEL-28
HT-29 = tested on: HT-29
NCI-H226 = tested on: NCI-H226
SK-MEL-2 = tested on: SK-MEL-2
HCC 2998 = tested on: HCC 2998
RPMI-8226 = tested on: RPMI-8226
HCT-116 = tested on: HCT-116
LOX IMVI = tested on: LOX IMVI
TK-10 = tested on: TK-10
A549 = tested on: A549
COLO 205 = tested on: COLO 205
K562 = tested on: K562

Structure (SMILES) | GI50 (HL-60) | GI50 (SF-268) | GI50 (SR) | GI50 (UACC-257) | GI50 (Malme-3M) | GI50 (NCI-H522) | GI50 (SK-MEL-28) | GI50 (HT-29) | GI50 (NCI-H226) | GI50 (SK-MEL-2) | GI50 (HCC 2998) | GI50 (RPMI-8226) | GI50 (HCT-116) | GI50 (LOX IMVI) | GI50 (TK-10) | GI50 (A549) | GI50 (COLO 205) | GI50 (K562)
Nc1ccc(C(=O)NN2C(=O)C(Cl)C2c2ccccc2Cl)cc1 (stereo unspecified) | 1.02 µM (active) | 3.84 µM (inactive) | 5.45 µM (inactive) | 13.6 µM (inactive) | 17.6 µM (inactive) | 1.71 µM (inactive) | 14.8 µM (inactive) | 10.3 µM (inactive) | 16.8 µM (inactive) | 11.3 µM (inactive) | 16.5 µM (inactive) | 6.25 µM (inactive) | 4.21 µM (inactive) | 1.41 µM (inactive) | 16.5 µM (inactive) | 14.3 µM (inactive) | 14.6 µM (inactive) | 
CC1(C)OC(=S)N(c2ccccc2)C12C=Cc1cc3ccccc3nc1S2 (stereo unspecified) | 40.9 µM (inactive) | > 100 µM (inactive) | 22.4 µM (inactive) | > 100 µM (inactive) | > 100 µM (inactive) | 32.6 µM (inactive) | > 100 µM (inactive) | 40.4 µM (inactive) | > 100 µM (inactive) | > 100 µM (inactive) | > 100 µM (inactive) | 33.7 µM (inactive) | > 100 µM (inactive) | 59 µM (inactive) | > 100 µM (inactive) | > 100 µM (inactive) | 84.3 µM (inactive) | 33.4 µM (inactive)
CC(=O)c1cccc(NCn2nnc3ccccc32)c1 | 61 µM (inactive) | > 100 µM (inactive) | 79.4 µM (inactive) | > 100 µM (inactive) | > 100 µM (inactive) | > 100 µM (inactive) | > 100 µM (inactive) | > 100 µM (inactive) | > 100 µM (inactive) | > 100 µM (inactive) | > 100 µM (inactive) | 96.8 µM (inactive) | > 100 µM (inactive) | > 100 µM (inactive) | > 100 µM (inactive) | > 100 µM (inactive) | > 100 µM (inactive) | > 100 µM (inactive)
O=C(O)CSc1nnc(Cc2ccccc2)[nH]1 | > 100 µM (inactive) | > 100 µM (inactive) | > 100 µM (inactive) | > 100 µM (inactive) | > 100 µM (inactive) | > 100 µM (inactive) | > 100 µM (inactive) | > 100 µM (inactive) | > 100 µM (inactive) | > 100 µM (inactive) | > 100 µM (inactive) | > 100 µM (inactive) | > 100 µM (inactive) | > 100 µM (inactive) | > 100 µM (inactive) | > 100 µM (inactive) |  | > 100 µM (inactive)
CC(=O)Oc1cc2c(=O)oc3c(OC(C)=O)c(OC(C)=O)c(OC(C)=O)c4c(=O)oc(c1OC(C)=O)c2c34 | 56 µM (inactive) | 48.4 µM (inactive) | 24.8 µM (inactive) | 45.5 µM (inactive) | 29.4 µM (inactive) | 37.4 µM (inactive) | 32.7 µM (inactive) | 37.9 µM (inactive) | 43.9 µM (inactive) | 28.8 µM (inactive) | > 100 µM (inactive) | 73.8 µM (inactive) | 24 µM (inactive) | 15.6 µM (inactive) | > 100 µM (inactive) | > 100 µM (inactive) | 59 µM (inactive) | 53.5 µM (inactive)
COC(OC)c1cccc2c1C1(O)CCC3(CC21)OCCCCO3 (stereo unspecified) | > 100 µM (inactive) | > 100 µM (inactive) | > 100 µM (inactive) | > 100 µM (inactive) | > 100 µM (inactive) | > 100 µM (inactive) | > 100 µM (inactive) | > 100 µM (inactive) | > 100 µM (inactive) | > 100 µM (inactive) | > 100 µM (inactive) | > 100 µM (inactive) | > 100 µM (inactive) | > 100 µM (inactive) | > 100 µM (inactive) | > 100 µM (inactive) | > 100 µM (inactive) | > 100 µM (inactive)
